Data from patent US9820981B2, “Treatment of retinopathy of prematurity (ROP)” (The Cleveland Clinic Foundation, priority 2013, dated 2017).

Tests used:
[1] = system: oxygen-induced retinopathy (OIR); experiment: Oxygen-induced retinopathy (OIR) mouse model, retinal flatmounts; assay type: in vivo; details: for reduction of capillary dropout in retinal flatmounts (percent avascular area of total retinal area): P17, each at optimal dose (10 μg/g FG-4592, 200 μg/g DMOG) i.p. at P6, P8, P10
Description: The PBS-treated pup has an ischemic, posterior retina compared to the FG-4592-treated pup. Pups were treated with intraperitoneal injection of 10 μg/g body weight FG-4592 at P6, P8, and P10 while in 75% hyperoxia. At P12, pups were removed to room air with their nursing mothers and sacrificed at P17. Eyes were removed and fixed for 15 minutes in fresh 4% paraformaldehyde (PFA) before isolating whole retina, permeabilizing and lectin staining, then flat mounting for fluorescence microscopy.
An automated computer program (ImagePro version 7.0) measures capillary dropout and neovascular tufting seen in 3B.
The mouse model of ROP used in this study is based on a well-established protocol by Smith et al. (L. E. Smith, E. Wesolowski, A. McLellan, S. K. Kostyk, R. D'Amato, R. Sullivan, and P. A. D'Amore. Oxygen-induced retinopathy in the mouse. Investigative ophthalmology & visual science. 35:101-111 (1994)) that involves exposing pups and their nursing mothers to 5 days of hyperoxia (75% oxygen) during P7 through P12 in the wild type C57BL6 (WT) pups. A Plexiglas incubator with an oxygen sensor and feedback system ProOx (Biospherix, Lacona, N.Y.) was used to ensure continuous hyperoxia. Animals were injected intraperitoneally with FG-4592 (10 μg/g), DMOG (200 μg/g) or control PBS in the equivalent volume at P6, P8, and P10. […] Flatmount preparation and lectin (GS-IB4-Alexa568, Life Technologies, Grand Island, N.Y.) staining was performed essentially as described elsewhere (K. M. Connor, N. M. Krah, R. J. Dennison, C. M. Aderman, J. Chen, K. I. Guerin, P. Sapieha, A. Stahl, K. L. Willett, and L. E. Smith. Quantification of oxygen-induced retinopathy in the mouse: a model of vessel loss, vessel regrowth and pathological angiogenesis. Nat Protoc. 4:1565-1573 (2009); A. Stahl, K. M. Connor, P. Sapieha, K. L. Willett, N. M. Krah, R. J. Dennison, J. Chen, K. I. Guerin, and L. E. Smith. Computer-aided quantification of retinal neovascularization. Angiogenesis. 12:297-301 (2009)). Retinas were dissected using four radial cuts, and flatmounted onto glass slides with Vectashield (Vector Labs, Burlingame, Calif.). All animal procedures were performed in accordance with the Cleveland Clinic Institutional Animal Care and Use Committee.
For quantitative analysis of avascular area, vascular tortuosity, and tufting, retinal images were batch processed using a customized macro and algorithms generated in Image-Pro Plus 7.0 (Media Cybernetics, Silver Spring, Md.) as previously described (J. E. Sears, G. Hoppe, Q. Ebrahem, and B. Anand-Apte. Prolyl hydroxylase inhibition during hyperoxia prevents oxygen-induced retinopathy. Proceedings of the National Academy of Sciences of the United States of America. 105:19898-19903 (2008)).
FG-4592 was solubilized as a stock solution of […] in DMSO, which was then diluted 50 times in PBS to a concentration of 1 μg/microliter to facilitate a final dose of 10 μg/g body weight of each mouse pup. Three injections were administered during the hyperoxic phase of oxygen-induced retinopathy (OIR) at 48-hour intervals.

[2] = system: Hepatic EPO, VEGFA and ANGPTL3 mRNA; experiment: Reverse transcription and quantitative PCR of hepatic mRNA; assay type: in vivo, mouse; details: data not shown
Description: Tissue from liver, kidney, brain and retina were placed into 1 mL of RNAlater reagent (Qiagen, Germantown, Md.) and stored at −80° C. Total RNA was extracted using RNeasy kit (Qiagen) and measured using NanoDrop and standard spectrophotometric parameters. One μg of total RNA from each sample was retrotranscripted to cDNA using QuantiTect Reverse Transcription Kit (Qiagen). One μl of cDNA samples was used as template for amplification reactions carried out with the QuantiTect SYBR Green PCR kit (Qiagen) following the manufacturer's instructions. PCR amplifications were performed in a 7900HT Fast Real-Time PCR system (Applied Biosystems, Foster City, Calif.) and quantitative PCR data analysis was performed with RQ Managed software (Applied Biosystems).

HIF-1α = experiment: Western blot of HIF-1α protein in organ lysates; assay type: in vivo; details: mouse pups, versus PBS
Description: Mice were sacrificed by ketamine/xylazine overdose, organs collected and placed in RIPA buffer (200 μL per 50 mg of tissue, pH 7.0) containing protease inhibitors Complete (Roche, Indianapolis, Ind.), disrupted using a tight fitting microtube pestle, and centrifuged to remove particulate matter. A Pierce BCA protein assay (Thermo Scientific, Rockford, Ill.) was used to measure protein concentrations. Lysates were subjected to 4-20% SDS-PAGE and electro-transferred to PVDF membranes for immunoblotting. Membranes were blocked with 5% nonfat dried milk in Tris-buffered saline and 0.1% Tween-20, then probed with anti-HIF-1α, antibody (Cayman Chemical, Ann Arbor, Mich.) overnight. After washing and secondary antibody hybridization, membranes were exposed by chemiluminescence (Western Lighting, PerkinElmer, Waltham, Mass.).
FIG. 5A is images of Western blots detecting HIF-1α protein in organ lysates derived from pups treated with PBS or FG-4592, and FIG. 5B is a graph of integrated optical density of the immunoblots shown in FIG. 5A.

[3] = system: serum erythropoietin (Epo), a HIF-regulated gene product; experiment: Immunoblot of serum erythropoietin (Epo) response after single intraperitoneal injection; assay type: in vivo; details: P8 mouse pups, serum 6 hours after a single intraperitoneal injection
[4] = system: angiopoietin-like protein 3 (ANGPTL-3); experiment: Serum ANGPTL-3 ELISA; assay type: in vivo; details: P8 mouse pups
Description: (§1) Wild-type (WT) and HIF-1α knock-out (KO) P8 mouse pups were injected with 10 μg/g FG-4592 and, following indicated periods of time, the pups were anesthetized by ketamine/xylazine, blood was drawn using heparinized 27-gauge needle and syringe. Serum was diluted 1:10 (EPO), 1:5 (VEGF) or 1:100 (ANGPTL-3) with sample diluent provided by the manufacturer (R&D Systems, Minneapolis, Minn.). Spectrophotometric measurements of EPO, VEGF, and ANGPTL-3 quantities were obtained according to the manufacturer's instructions.

[5] = system: HIF prolyl hydroxylase (PHD); experiment: In vivo localization of PHD inhibition in luc-ODD mouse (luminescence imaging, luciferase activity in organ lysates); details: for localization of luminescence, whole animal imaging: luc-ODD mouse
Description: Gt(ROSA)26Sor^tml(Luc)Kael (luc-ODD) mice were obtained from the Jackson Laboratory (Bar Harbor, Me.). Pups were given i.p. injections of 10 μg/g FG-4592 at indicated periods of time prior to live imaging. Mice were injected with mixture of 100 mg/kg ketamine, 10 mg/kg xylazine and 50 mg/kg luciferin and placed in a light-tight chamber connected to a supercooled, charge-coupled camera. Photons were collected for 15 seconds using IVI 100 Imaging System (PerkinElmer, Waltham, Mass.).
The luc-ODD mouse has a transgene comprised of luciferase fused to the ODD and, therefore, serves as a reporter gene in vivo of where hydroxylation of the ODD is inhibited, observed as luminescence in tissue lysates and whole animal imaging.
Quantitation of the effect shown in FIG. 4A supports the specificity of this effect in tissue lysates.

EPO = experiment: Serum EPO ELISA; assay type: in vivo; details: P8 mouse pups
Description: as §1

VEGF = experiment: Serum VEGF ELISA; assay type: in vivo; details: P8 mouse pups
Description: as §1

[6] = murine OIR model, 10 eyes each group

| Structure (SMILES) | reduction of capillary dropout in retinal flatmounts (percent avascular area of total retinal area) ([1]; versus PBS) [fold] | Hepatic EPO, VEGFA and ANGPTL3 mRNA levels and kinetics [2] | organ specific stabilization of HIF-1α protein (integrated optical density) (HIF-1α) | potency relative to DMOG, quantification of serum Epo immunoblot [3] | elevation of ANGPTL-3 in serum ([4]; 10 μg/g FG-4592 i.p.) [fold] | time course of ANGPTL-3 induction ([4]; time-course study) | preservation of retinal vessels in retinal flatmounts ([1]; 10 μg/g i.p. at P6, P8, P10 in 75% hyperoxia, sacrificed P17, versus PBS) | benefit in direct comparison with DMOG ([1]; OIR model, 10 μg/g FG-4592 versus 200 μg/g DMOG) | ischemic, hypoxic retina (isolectin and Hypoxyprobe staining) ([1]; P17, versus sham PBS injection) | rate of decrease of central avascular region (retinovascular repair) ([1]; flatmounts at P12, P15, P17, treated versus PBS) | inhibition of capillary drop-out compared with DMOG [1, 6] | inhibition of neovascularization subsequent to capillary drop-out compared with DMOG [1, 6] | organ specificity, luciferase activity (RLU/mg tissue protein) in organ lysates ([5]; luc-ODD mice, s.c. or i.p. injection, versus PBS) | localization of luminescence, whole animal imaging ([5]; i.p. injection) | localization of luminescence, whole animal imaging ([5]; s.c. injection) | duration of HIF PHD inhibition ([5]; single intraperitoneal injection, time course in kidney and lung) | circulating (serum) levels of EPO (EPO; 10 μg/g FG-4592 i.p.) | time of peak EPO production after treatment (EPO; time-course study) [h] | serum levels of VEGF (VEGF; 10 μg/g FG-4592 i.p.) | time of peak VEGF levels after treatment (VEGF; time-course study) [h] |
| --- | --- | --- | --- | --- | --- | --- | --- | --- | --- | --- | --- | --- | --- | --- | --- | --- | --- | --- | --- | --- |
| COC(=O)CNC(=O)C(=O)OC [DMOG, dimethyl oxaloylglycine] | 3 |  |  |  |  |  |  |  |  |  |  |  |  |  |  |  |  |  |  |  |
| Cc1nc(C(=O)NCC(=O)O)c(O)c2ccc(Oc3ccccc3)cc12 [FG-4592] | 3 | mirrored their corresponding serum protein concentrations | maximal increase in HIF-1α in liver and kidney lysates | approximately fifteen times more potent than DMOG | 6 | sustained induction, even 24 hours after FG-4592 treatment | preservation of retinal vessels | at least the same benefit as DMOG, with a trend to superiority of FG-4592 | decrease in ischemic, hypoxic retina at P17 | identical rates of decrease of this region in treated and untreated animals | inhibits capillary drop-out better than DMOG | inhibits neovascularization subsequent to capillary drop-out better than DMOG | specificity of FG-4592 for liver and kidney | liver- and kidney-specific luminescence | liver- and kidney-specific luminescence | at least 24 hours | marked increase | 3 | moderate but statistically significant increase | 6 |
